From US20260297080A1, “BICYCLIC COMPOUNDS AS CDK INHIBITORS” (BeOne Medicines I GmbH, priority 2022, published 2026)

What was measured:
CDK1/Cyclin B1 = CDK1/Cyclin B1 (Homo sapiens, UniProt P06493); experiment: CDK1/Cyclin B1 Biochemical Assay (TR-FRET), 0.015 mM ATP; conditions: 0.15 μM Rb (Ser780)-biotin substrate, pH7.0, 60 min preincubation, 120 min reaction, room temperature
How it was run: (§1)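 Percent inhibition was derived from the 665 nm/620 nm TR-FRET ratio after a 120-minute room-temperature reaction on 0.15 μM Rb (Ser780)-biotin, preceded by 60-minute enzyme–compound preincubation. IC50 came from four-parameter logistic fitting.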

CDK2/Cyclin E1 = CDK2/Cyclin E1 (Homo sapiens, UniProt P24941); experiment: CDK2/Cyclin E1 Biochemical Assay (TR-FRET), 0.060 mM ATP; conditions: 0.15 μM Rb (Ser780)-biotin substrate, pH7.0, 60 min preincubation, 120 min reaction, room temperature
How it was run: as §1

CDK1/Cyclin B1, sequence (P06493 whole entry): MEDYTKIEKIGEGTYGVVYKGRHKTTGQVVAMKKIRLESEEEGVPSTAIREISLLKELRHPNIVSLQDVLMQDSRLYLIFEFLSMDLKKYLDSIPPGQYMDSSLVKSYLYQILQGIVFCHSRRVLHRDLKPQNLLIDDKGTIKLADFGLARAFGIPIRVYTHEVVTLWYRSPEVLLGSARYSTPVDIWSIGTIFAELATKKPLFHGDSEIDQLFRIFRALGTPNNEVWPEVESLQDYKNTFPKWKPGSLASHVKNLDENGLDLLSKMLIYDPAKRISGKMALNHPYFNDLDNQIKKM
CDK1/Cyclin B1, sequence (P14635 whole entry partner): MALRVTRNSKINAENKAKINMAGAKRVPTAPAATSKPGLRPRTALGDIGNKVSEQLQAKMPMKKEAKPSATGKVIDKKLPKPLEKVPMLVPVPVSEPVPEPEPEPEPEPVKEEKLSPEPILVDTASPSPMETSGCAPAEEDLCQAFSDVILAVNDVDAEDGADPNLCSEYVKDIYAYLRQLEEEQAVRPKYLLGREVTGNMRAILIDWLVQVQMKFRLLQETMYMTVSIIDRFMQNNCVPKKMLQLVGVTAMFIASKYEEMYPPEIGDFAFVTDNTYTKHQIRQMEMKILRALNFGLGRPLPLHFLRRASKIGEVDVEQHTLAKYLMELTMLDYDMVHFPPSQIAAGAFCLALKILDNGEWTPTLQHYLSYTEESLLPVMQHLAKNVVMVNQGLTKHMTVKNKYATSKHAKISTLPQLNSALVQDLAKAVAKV

Row | SMILES | IC50 (CDK1/Cyclin B1) [nM] | IC50 (CDK2/Cyclin E1) [nM]
1 | CC(C)NC(=O)O[C@H]1CC[C@@H](c2cc(Nc3ccc4c(c3)CS(=O)(=O)N4CCN3CCOCC3)n[nH]2)C1 (relative stereo) [Example 212, cis-3-(3-((1-(2-morpholinoethyl)-2,2-dioxido-1,3-dihydrobenzo[c]isothiazol-5-yl)amino)-1H-pyrazol-5-yl)cyclopentyl isopropylcarbamate] | 60 | 3.5
2 | CCCNC(=O)O[C@H]1CC[C@@H](c2cc(Nc3ccc4c(c3F)CS(=O)(=O)N4C3CC3)n[nH]2)C1 (relative stereo) [Example 276, cis-3-(3-((1-cyclopropyl-4-fluoro-2,2-dioxido-1,3-dihydrobenzo[c]isothiazol-5-yl)amino)-1H-pyrazol-5-yl)cyclopentyl propylcarbamate] | 111 | 5
3 | C[C@H]1[C@H](O)CN1C(=O)O[C@H]1CC[C@@H](c2cc(Nc3ccc4c(c3F)CN(C)S4(=O)=O)n[nH]2)C1 (relative stereo) [Example 170, cis-3-(3-((4-fluoro-2-methyl-1,1-dioxido-2,3-dihydrobenzo[d]isothiazol-5-yl)amino)-1H-pyrazol-5-yl)cyclopentyl(2S,3R)-3-hydroxy-2-methylazetidine-1-carboxylate] | 407 | 23
4 | CC1(NC(=O)O[C@H]2CC[C@@H](c3cc(Nc4ccc5c(c4)CCS(=O)(=O)N5)n[nH]3)C2)CC1 (racemic) [Example 249, cis-3-(3-((2,2-dioxido-3,4-dihydro-1H-benzo[c][1,2]thiazin-6-yl)amino)-1H-pyrazol-5-yl)cyclopentyl(1-methylcyclopropyl)carbamate] | 29 | 2.1
5 | COCC(C)NC(=O)O[C@H]1CC[C@@H](c2cc(Nc3ccc4c(c3F)CS(=O)(=O)N4C)n[nH]2)C1 (relative stereo) [Example 331, cis-3-(3-((4-fluoro-1-methyl-2,2-dioxido-1,3-dihydrobenzo[c]isothiazol-5-yl)amino)-1H-pyrazol-5-yl)cyclopentyl(1-methoxypropan-2-yl)carbamate] | 229 | 3.9
6 | CC(C)NC(=O)O[C@H]1CC[C@@H](c2cc(Nc3ccc4c(c3)S(=O)(=O)NC4C)[nH]n2)C1 (single isomer, unassigned) [Example 5a, cis-3-(5-((3-methyl-1,1-dioxido-2,3-dihydrobenzo[d]isothiazol-6-yl)amino)-1H-pyrazol-3-yl)cyclopentyl isopropylcarbamate] | 49 | 2.2
7 | CC(C)NC(=O)O[C@H]1CC[C@@H](c2cc(Nc3ccc4c(c3F)CN(CC(F)(F)F)S4(=O)=O)n[nH]2)C1 (relative stereo) [Example 66, cis-3-(3-((4-fluoro-1,1-dioxido-2-(2,2,2-trifluoroethyl)-2,3-dihydrobenzo[d]isothiazol-5-yl)amino)-1H-pyrazol-5-yl)cyclopentyl isopropylcarbamate] | 412 | 7.3
8 | CC(C)NC(=O)O[C@H]1CC[C@@H](c2cc(Nc3ccc4c(c3)CS(=O)(=O)N4C3COC3)n[nH]2)C1 (relative stereo) [Example 209, cis-3-(3-((1-(oxetan-3-yl)-2,2-dioxido-1,3-dihydrobenzo[c]isothiazol-5-yl)amino)-1H-pyrazol-5-yl)cyclopentyl isopropylcarbamate] | 37 | 5.4
9 | CC[C@H](C)NC(=O)O[C@H]1CC[C@@H](c2cc(Nc3ccc4c(c3F)C(C)NS4(=O)=O)n[nH]2)C1 (single isomer, unassigned) [Example 54a] | 309 | 1.1
10 | CC[C@H](C)NC(=O)O[C@H]1CC[C@@H](c2cc(Nc3ccc4c(c3)CS(=O)(=O)N4C)n[nH]2)C1 (relative stereo) [Example 222, cis-3-(3-((1-methyl-2,2-dioxido-1,3-dihydrobenzo[c]isothiazol-5-yl)amino)-1H-pyrazol-5-yl)cyclopentyl((S)-sec-butyl)carbamate] | 48 | 5
11 | CC(C)NC(=O)O[C@H]1CC[C@@H](c2cc(Nc3ccc4c(c3F)C(CCO)S(=O)(=O)N4CCO)n[nH]2)C1 (relative stereo) [Example 253, cis-3-(3-((4-fluoro-1,3-bis(2-hydroxyethyl)-2,2-dioxido-1,3-dihydrobenzo[c]isothiazol-5-yl)amino)-1H-pyrazol-5-yl)cyclopentyl isopropylcarbamate] | 96 | 4.3
12 | CC(C)NC(=O)O[C@H]1CC[C@@H](c2cc(Nc3ccc4c(c3)N(CCO)S(=O)(=O)C4)n[nH]2)C1 (relative stereo) [Example 309, cis-3-(3-((1-(2-hydroxyethyl)-2,2-dioxido-1,3-dihydrobenzo[c]isothiazol-6-yl)amino)-1H-pyrazol-5-yl)cyclopentyl isopropylcarbamate] | 6.1 | 1.4
13 | CC1(NC(=O)O[C@H]2CC[C@@H](c3cc(Nc4cc5c(cc4F)S(=O)(=O)NC5)n[nH]3)C2)CC1 (single isomer, unassigned) [Example 44a, cis-3-(3-((6-fluoro-1,1-dioxido-2,3-dihydrobenzo[d]isothiazol-5-yl)amino)-1H-pyrazol-5-yl)cyclopentyl(1-methylcyclopropyl)carbamate] | 138 | 1.3
14 | CC[C@H](C)NC(=O)O[C@H]1CC[C@@H](c2cc(Nc3ccc4c(c3F)S(=O)(=O)NC4)n[nH]2)C1 (relative stereo) [Example 188, cis-3-(3-((7-fluoro-1,1-dioxido-2,3-dihydrobenzo[d]isothiazol-6-yl)amino)-1H-pyrazol-5-yl)cyclopentyl((S)-sec-butyl)carbamate] | 29 | 0.8
15 | O=C(NCC1COC1)O[C@H]1CC[C@@H](c2cc(Nc3ccc4c(c3F)CNS4(=O)=O)n[nH]2)C1 (relative stereo) [Example 148, cis-3-(3-((4-fluoro-1,1-dioxido-2,3-dihydrobenzo[d]isothiazol-5-yl)amino)-1H-pyrazol-5-yl)cyclopentyl(oxetan-3-ylmethyl)carbamate] | 523 | 44
16 | COCC(C)NC(=O)O[C@H]1CC[C@@H](c2cc(Nc3ccc4c(c3F)CN(C)S4(=O)=O)n[nH]2)C1 (relative stereo) [Example 338, cis-3-(3-((4-fluoro-2-methyl-1,1-dioxido-2,3-dihydrobenzo[d]isothiazol-5-yl)amino)-1H-pyrazol-5-yl)cyclopentyl(1-methoxypropan-2-yl)carbamate] | 544 | 13
17 | CC(C)NC(=O)O[C@H]1CC[C@@H](c2cc(Nc3ccc4c(c3F)S(=O)(=O)N(C)C4)n[nH]2)C1 (relative stereo) [Example 190, cis-3-(3-((7-fluoro-2-methyl-1,1-dioxido-2,3-dihydrobenzo[d]isothiazol-6-yl)amino)-1H-pyrazol-5-yl)cyclopentyl isopropylcarbamate] | 328 | 8.1

Further lines, results first:

Row | IC50 (CDK1/Cyclin B1) [nM] | IC50 (CDK2/Cyclin E1) [nM] | SMILES
18 | 35 | 2.6 | CC(C)NC(=O)O[C@H]1CC[C@@H](c2cc(Nc3ccc4c(c3)CS(=O)(=O)N4C)n[nH]2)C1 (single isomer, unassigned) [Example 220b]
19 | 48 | 1.3 | [2H]C([2H])([2H])N1c2c(F)cc(Nc3cc([C@@H]4CC[C@H](OC(=O)NC5(C)CC5)C4)[nH]n3)cc2CS1(=O)=O (single isomer, unassigned) [Example 291b, cis-3-(3-((7-fluoro-1-(methyl-d3)-2,2-dioxido-1,3-dihydrobenzo[c]isothiazol-5-yl)amino)-1H-pyrazol-5-yl)cyclopentyl(1-methylcyclopropyl)carbamate]
20 | 237 | 2.6 | CCCNC(=O)O[C@@H]1CC[C@H](c2cc(Nc3ccc4c(c3F)CNS4(=O)=O)n[nH]2)C1 (single isomer, unassigned) [Example 138a]
21 | 457 | 5.2 | CC(C)NC(=O)O[C@H]1CC[C@@H](c2cc(Nc3cc4c(cc3F)NS(=O)(=O)C4)n[nH]2)C1 (single isomer, unassigned) [Example 292b, cis-3-(3-((6-fluoro-2,2-dioxido-1,3-dihydrobenzo[c]isothiazol-5-yl)amino)-1H-pyrazol-5-yl)cyclopentyl isopropylcarbamate]
22 | 613 | 5.2 | CC[C@H](C)NC(=O)O[C@H]1CC[C@@H](c2cc(Nc3ccc4c(c3F)CN(C)S4(=O)=O)n[nH]2)C1 (single isomer, unassigned) [Example 123a]
23 | 96 | 3.3 | CCCNC(=O)O[C@@H]1CC[C@H](c2cc(Nc3ccc4c(c3F)CS(=O)(=O)N4CC(F)(F)F)n[nH]2)C1 [Example 266a]
24 | 455 | 12 | CCCNC(=O)O[C@H]1CC[C@@H](c2cc(Nc3ccc4c(c3F)CN(C)S4(=O)=O)n[nH]2)C1 (single isomer, unassigned) [Example 122a, cis-3-(3-((4-fluoro-2-methyl-1,1-dioxido-2,3-dihydrobenzo[d]isothiazol-5-yl)amino)-1H-pyrazol-5-yl)cyclopentyl propylcarbamate]
25 | 143 | 1.5 | CN1c2ccc(Nc3cc([C@@H]4CC[C@H](OC(=O)NC(C)(C)CO)C4)[nH]n3)c(F)c2CS1(=O)=O (single isomer, unassigned) [Example 327a, cis-3-(3-((4-fluoro-1-methyl-2,2-dioxido-1,3-dihydrobenzo[c]isothiazol-5-yl)amino)-1H-pyrazol-5-yl)cyclopentyl(1-hydroxy-2-methylpropan-2-yl)carbamate]
26 | 458 | 14 | CC(C)(C)NC(=O)O[C@H]1CC[C@@H](c2cc(Nc3cc4c(cc3F)NS(=O)(=O)C4)n[nH]2)C1 [Example 404b]
